Three compounds from patent publication US5137811A, “Method for diagnosing periodontal diseases with a substrate specific for aminopeptidase activity of periodontopathic bacteria” (Sunstar Kabushiki Kaisha, priority 1986, dated 1992) can be followed below.

In one assay the test system is Bacteroides gingivalis. The experiment in a line: Hydrolytic activity of oral anaerobe cell suspension on aminopeptidase substrates (Experiment 1). It counts as cell-based. As to conditions: five strains, substrate 0.2 mM, pH 7.0, 37° C., 60 minutes, Table 1. In outline:
(§1)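 Treponema grown anaerobically in TYGVS (37 °C, 7 days) and other strains in brain heart infusion (37 °C, 48–72 h), then diluted to A660 1.0. Cells reacted 60 min at 37 °C with β-naphthylamine-derived substrates (0.2 mM solution, 0.1 M Tris-HCl pH 7.0). Garnet GBC coupling, A525 after 15 min; activity graded from mean released β-naphthylamine per strain.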

The subject of assay [1] is Treponema denticola. The assay is described as above. It counts as cell-based. As to conditions: four strains, substrate 0.2 mM, pH 7.0, 37° C., 60 minutes, Table 1. In outline:
as §1

Assay [2] has as its system Actinobacillus actinomycetemcomitans. The assay is described as above. It is filed as cell-based. As to conditions: four strains, substrate 0.2 mM, pH 7.0, 37° C., 60 minutes, Table 1. In outline:
as §1

In assay [3] the test system is Fusobacterium nucleatum. The description is as above. As to conditions: three strains, substrate 0.2 mM, pH 7.0, 37° C., 60 minutes, Table 1. It counts as cell-based. In outline: as §1
Another assay relates to Capnocytophaga sp. The description is as above. As to conditions: four strains, substrate 0.2 mM, pH 7.0, 37° C., 60 minutes, Table 1. It counts as cell-based. In outline:
as §1

The test system of assay [4] is periodontopathic bacteria specific aminopeptidase activity. Briefly: Hydrolytic activity of gingival crevicular fluid specimens, OD525 (Experiment 6). It is filed as biochemical. On the procedure: (§2) Substrate compounds for aminopeptidase enzyme having various color developing groups derived from β-naphthylamine were dissolved in 0.1M Tris-HCl buffer (pH 7.0) at the concentration of 0.2 mM to obtain substrate solutions.
(§3) To the substrate solution (1.5 ml) was added the above cell suspension (0.3 ml) and reacted at 37° C. for 60 minutes. After completion of the reaction, a coloring reagent [prepared by dissolving diazonium salt of Garnet GBC in 1M acetate buffer (containing 10% Tween 20, pH: 4.2) at the concentration of 0.5 mg/ml] was added and, after 15 minutes, the absorption at 525 nm was determined with a spectrophotometer.
Specimens of gingival crevicular fluid were collected with paper points from five subjects who were considered to be healthy from their clinical state, six subjects with gingivitis and six subjects with periodontitis. Each specimen was dispersed in Ringer's solution (1.5 ml), and the relative amount of spirochete to total bacteria: [formula] was determined with a phase contrast microscope. Further, the Ringer's solution (0.3 ml) was tested for hydrolytic activity using the substrate solution prepared in the same manner as described in Experiment 1. As substrates, there were used compounds of the formula [1], i.e., N-benzoylvalyl-glycyl-arginine-β-naphthylamide (BzVGR) and N-carbobenzoxy-valyl-glycyl-arginine-β-naphthylamide (CxVGR) were used.
According to the same manner as described in Experiment 4, hydrolytic activity was tested by using the compounds of the formulas and [2], i.e., glycyl-proline-βnaphthylamide (GP), N-benzoyl-arginyl-glycyl-phenylalanylproline-β-naphthylamide (BzRGFP), N-carbobenzoxy-valylglycyl-arginine-β-naphthylamide (CxVGR) and N-benzoylglycyl-arginine-β-naphthylamide (BzGR) alone or in combination. Hydrolytic activity was determined by measuring absorption at 525 nm (OD525) and expressed as follows.

Assay [5] concerns Treponema denticola. Briefly: Hydrolytic activity of cell suspension, substrates alone or in combination (Experiment 3). It is filed as cell-based. As to conditions: four strains, Table 3. On the procedure: (§4) The strains of Treponema were anaerobically cultivated using TYGVS media at 37° C. for 7 days, while other bacterial strains were cultivated using brain heart infusion broth at 37° C. for 48 to 72 hours. Each culture was diluted to obtain a bacterial cell suspension, the absorption at 660 nm of which was 1.0.
as §2, §3
(§5) On the basis of the average amount of released β-naphthylamine in each strain, the hydrolytic activity was expressed as follows: […]
(§6) According to the same manner as described in Experiment 1, periodontopathic bacteria specific aminopeptidase activity was tested by using four strains of Treponema denticola, five strains of B. gingivalis, four strains of Actinobacillus actinomycetemcomitans, two strains of Actinomyces israelli and three strains of Fusobacterium nucleatum. Abbreviations in Table 3 are the same as those in Tables 1 and 2. Hydrolytic activity "+++" means "40≤release amount<80 nmol/ml" and "++++" means "release amount≥80 nmol/ml".

For assay [6], the system named is Actinomyces israelli. The description is as above. It counts as cell-based. As to conditions: two strains, Table 3. The method, then: as §4, §2, §3, §5, §6
Assay [7] relates to Actinobacillus actinomycetemcomitans. The description is as above. It is filed as cell-based. As to conditions: four strains, Table 3. The method, then:
as §4, §2, §3, §5, §6

Assay [8] deals with B. gingivalis. The description is as above. As to conditions: five strains, Table 3. It is filed as cell-based. On the procedure: as §4, §2, §3, §5, §6
The test system of assay [9] is Fusobacterium nucleatum. The assay is described as above. It is filed as cell-based. As to conditions: three strains, Table 3. On the procedure:
as §4, §2, §3, §5, §6

A further assay relates to B. intermedius. Briefly: Hydrolytic activity of cell suspension on aminopeptidase substrates (Experiment 2). As to conditions: three strains, Table 2. It counts as cell-based. In outline: (§7)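 Absorbance at 525 nm of β-naphthylamine coupled to Garnet GBC diazonium salt gave the readout, with activity scored on the average amount freed per strain. Suspensions at A660 1.0 were reacted with 0.2 mM substrates at pH 7.0, 37° C., for 60 minutes.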

Assay [10] relates to Treponema denticola. The assay is described as above. It counts as cell-based. As to conditions: four strains, Table 2. In outline:
as §7

The test system of assay [11] is Actinomyces israelli. Described as above. As to conditions: two strains, Table 2. It is filed as cell-based. In outline:
as §7

For assay [12], the system named is Actinobacillus actinomycetemcomitans. Described as above. It counts as cell-based. As to conditions: four strains, Table 2. In outline:
as §7

Another assay deals with B. denticola. The description is as above. It is filed as cell-based. As to conditions: Table 2. In outline: as §7
The next assay deals with B. melaninogenicus. The description is as above. It counts as cell-based. As to conditions: two strains, Table 2. In outline:
as §7

A further assay relates to B. corporis. Described as above. As to conditions: Table 2. It is filed as cell-based. In outline: as §7
Assay [13] has as its system B. gingivalis. Described as above. It is filed as cell-based. As to conditions: five strains, Table 2. In outline: as §7
Assay [14] has as its system Fusobacterium nucleatum. The assay is described as above. It counts as cell-based. As to conditions: three strains, Table 2. In outline:
as §7

Setting [15] is: Gingivitis subject 1 (spirochete 7.3 %).
Where [16] appears, read: Gingivitis subject 2 (spirochete 16.7 %).
[17] abbreviates: Gingivitis subject 3 (spirochete 20.5 %).
[18] abbreviates: Gingivitis subject 4 (spirochete 6.8 %).
The mark [19] stands for this setting: Gingivitis subject 5 (spirochete 7.3 %).
Where [20] appears, read: Healthy subject 1 (spirochete 0.1 %).
[21] abbreviates: Healthy subject 3 (spirochete 1.1 %).
Setting [22] is: Healthy subject 4 (spirochete 0.6 %).
The mark [23] stands for this setting: Healthy subject 5 (spirochete 1.3 %).
[24] abbreviates: Periodontitis subject 1 (spirochete 45.2 %).
[25] abbreviates: Periodontitis subject 2 (spirochete 30.3 %).
The mark [26] stands for this setting: Periodontitis subject 3 (spirochete 34.6 %).
Setting [27] is: Periodontitis subject 4 (spirochete 21.2 %).
The mark [28] stands for this setting: Periodontitis subject 5 (spirochete 40.3 %).
Where [29] appears, read: Periodontitis subject 6 (spirochete 35.1 %).

Where a SMILES comes first, the peptide text is derived from it. The star is where a group is joined. βNA = c1ccc2cc(N*)ccc2c1; Cbz = O=C(OCc1ccccc1)*; Bz = O=C(c1ccccc1)*

Regarding `N=C(N)NCCC[C@H](NC(=O)CNC(=O)c1ccccc1)C(=O)Nc1ccc2ccccc2c1` [BzGR, N-benzoyl-glycyl-arginine-β-naphthylamide] (Bz-Gly-Arg-βNA), the “hydrolytic activity (average amount of released β-naphthylamine)” value is given as “+++ (release amount≥40 nmol/ml)” in the assay with Bacteroides gingivalis; “++ (20 ≤release amount<40 nmol/ml)” with Treponema denticola [1]; “- (release amount<5 nmol/ml)” in assay [2]; “- (release amount<5 nmol/ml)” in the assay with Fusobacterium nucleatum [3]; “- (release amount<5 nmol/ml)” with Capnocytophaga sp.. Moreover, the “hydrolytic activity, absorption at 525 nm (OD525)” value (from here on “hydrolytic activity, absorption”) is “+ (0.1≤OD525 <0.2)” in assay [4] (setting [15]); “+ (0.1≤OD525 <0.2)” in [4] (setting [16]); “++ (0.2≤OD525 <0.4)” in assay [4] (setting [17]); “- (OD525 <0.1)” in assay [4] (setting [18]); “- (OD525 <0.1)” in assay [4] (setting [19]); “- (OD525 <0.1)” in assay [4] (setting [20]). For the same compound, the “hydrolytic activity, absorption” value was “- (OD525 <0.1)” in assay [4] (setting [21]); “- (OD525 <0.1)” in assay [4] (setting [22]); “- (OD525 <0.1)” in assay [4] (setting [23]); “++ (0.2≤OD525 <0.4)” in assay [4] (setting [24]); “++ (0.2≤OD525 <0.4)” in assay [4] (setting [25]); “++ (0.2≤OD525 <0.4)” in assay [4] (setting [26]). Besides, the “hydrolytic activity, absorption” value in assay [4] (setting [27]), in assay [4] (setting [28]) and in [4] (setting [29]) was “++ (0.2≤OD525 <0.4)” in each case. Also, the “hydrolytic activity (release amount)” value in the assay with Treponema denticola [5] was “++ (20 ≤release amount<40 nmol/ml)”; with Actinomyces israelli [6], “- (release amount<5 nmol/ml)”; in assay [7] it was “- (release amount<5 nmol/ml)”; in the assay on B. gingivalis [8], “+++ (40≤release amount<80 nmol/ml)”; in the assay with Fusobacterium nucleatum [9] it was “- (release amount<5 nmol/ml)”.
Take `NCCCC[C@H](NC(=O)OCc1ccccc1)C(=O)N1CCC[C@H]1C(=O)Nc1ccc2ccccc2c1` [CxKP, N-carbobenzoxy-lysyl-proline-β-naphthylamide] (Cbz-Lys-Pro-βNA): the “hydrolytic activity (average amount of released β-naphthylamine)” value in the assay with B. intermedius is given as “++ (20 ≤release amount<40 nmol/ml)”; with Treponema denticola [10] it was “+ (10 ≤release amount<20 nmol/ml)”; in the assay with Actinomyces israelli [11], “- (release amount<5 nmol/ml)”; in assay [12] it was “- (release amount<5 nmol/ml)”; in the assay with B. denticola, “++ (20 ≤release amount<40 nmol/ml)”; in the assay on B. melaninogenicus, “++ (20 ≤release amount<40 nmol/ml)”. Besides, the figures for the “hydrolytic activity (average amount of released β-naphthylamine)” value with B. corporis, in the assay with B. gingivalis [13] and in the assay with Fusobacterium nucleatum [14] were “++ (20 ≤release amount<40 nmol/ml)”, “++ (20 ≤release amount<40 nmol/ml)” and “- (release amount<5 nmol/ml)”, respectively. In addition, the “hydrolytic activity (release amount)” value in the assay on Treponema denticola [5] is listed as “+ (10 ≤release amount<20 nmol/ml)”; in the assay on Actinomyces israelli [6], “- (release amount<5 nmol/ml)”; in assay [7], “- (release amount<5 nmol/ml)”; in the assay with B. gingivalis [8], “++ (20 ≤release amount<40 nmol/ml)”; in the assay on Fusobacterium nucleatum [9] it was “- (release amount<5 nmol/ml)”.
As to `NCC(=O)N1CCC[C@H]1C(=O)Nc1ccc2ccccc2c1` [GP, glycyl-proline-β-naphthylamide] (H-Gly-Pro-βNA), the “hydrolytic activity (average amount of released β-naphthylamine)” value with B. intermedius is “+ (10 ≤release amount<20 nmol/ml)”; with Treponema denticola [10], “++ (20 ≤release amount<40 nmol/ml)”; with Actinomyces israelli [11] it was “- (release amount<5 nmol/ml)”; in [12] it was “- (release amount<5 nmol/ml)”; in the assay on B. denticola, “- (release amount<5 nmol/ml)”; with B. melaninogenicus, “++ (20 ≤release amount<40 nmol/ml)”. The “hydrolytic activity (average amount of released β-naphthylamine)” value in the assay on B. corporis is “++ (20 ≤release amount<40 nmol/ml)”; in the assay on B. gingivalis [13] it was “+++ (release amount≥40 nmol/ml)”; with Fusobacterium nucleatum [14], “- (release amount<5 nmol/ml)”. Besides, the “hydrolytic activity, absorption” value was “+ (0.1≤OD525 <0.2)” in assay [4] (setting [15]); “+ (0.1≤OD525 <0.2)” in assay [4] (setting [16]); “++ (0.2≤OD525 <0.4)” in [4] (setting [17]); “- (OD525 <0.1)” in [4] (setting [18]); “- (OD525 <0.1)” in assay [4] (setting [19]); “+ (0.1≤OD525 <0.2)” in [4] (Gingivitis subject 6 (spirochete 14.4 %)). The “hydrolytic activity, absorption” value in assay [4] (setting [20]) is given as “- (OD525 <0.1)”; in assay [4] (setting [21]), “- (OD525 <0.1)”; in assay [4] (setting [22]), “- (OD525 <0.1)”; in assay [4] (setting [23]), “- (OD525 <0.1)”; in [4] (setting [24]), “+++ (0.4≤OD525 <0.8)”; in assay [4] (setting [25]), “+++ (0.4≤OD525 <0.8)”. For the same compound, the “hydrolytic activity, absorption” value in assay [4] (setting [26]) was “+++ (0.4≤OD525 <0.8)”; in assay [4] (setting [27]) it was “++ (0.2≤OD525 <0.4)”; in [4] (setting [28]), “+++ (0.4≤OD525 <0.8)”; in assay [4] (setting [29]), “+++ (0.4≤OD525 <0.8)”. For the same compound, the “hydrolytic activity (release amount)” value with Treponema denticola [5] is “++ (20 ≤release amount<40 nmol/ml)”; in the assay with Actinomyces israelli [6], “- (release amount<5 nmol/ml)”; in assay [7] it was “- (release amount<5 nmol/ml)”; in the assay with B. gingivalis [8], “+++ (40≤release amount<80 nmol/ml)”; with Fusobacterium nucleatum [9], “- (release amount<5 nmol/ml)”.
